In ChEMBL document CHEMBL1938382, “Fragment-based discovery of indole inhibitors of matrix metalloproteinase-13” (J Med Chem, 2011):
pIC50: −log10 of the molar value. Converted amounts (≈) assume the structure as drawn.

How the values were obtained:
Stromelysin-2 = Stromelysin-2 (Homo sapiens, UniProt P09238); experiment: Inhibition of human recombinant MMP10 after 30 mins by fluorimetry
Cytochrome P450 2C9 = Cytochrome P450 2C9 (Homo sapiens, UniProt P11712); experiment: Inhibition of human recombinant CYP2C9 using 7-methoxy-4-trifluoromethylcoumarin as substrate after 45 mins by fluorimetry; type: ADME
Collagenase 3 [1] = biological target: T1, Collagenase 3 (Homo sapiens, UniProt P45452); experiment: Inhibition of MMP13 after 30 mins by fluorimetry in the presence of 1.25% human serum albumin
Collagenase 3 [2] = biological target: T1, Collagenase 3; experiment: Inhibition of human MMP13-mediated degradation of bovine nasal cartilage after 2 hrs by ELISA in the presence of 10% human serum
Cytochrome P450 3A4 = Cytochrome P450 3A4 (Homo sapiens, UniProt P08684); experiment: Inhibition of human recombinant CYP3A4 using 7-benzyloxy-4-trifluoromethylcoumarin as substrate after 30 mins by fluorimetry; type: ADME
[3] = Clearance in Sprague-Dawley rat at 1 mg/kg, iv and 10 mg/kg, po; type: ADME, organism-based; details: in vivo
Matrilysin = biological target: T2, Matrilysin (Homo sapiens, UniProt P09237); experiment: Inhibition of human recombinant MMP7 after 30 mins by fluorimetry
T2 sequence (P09237 whole entry): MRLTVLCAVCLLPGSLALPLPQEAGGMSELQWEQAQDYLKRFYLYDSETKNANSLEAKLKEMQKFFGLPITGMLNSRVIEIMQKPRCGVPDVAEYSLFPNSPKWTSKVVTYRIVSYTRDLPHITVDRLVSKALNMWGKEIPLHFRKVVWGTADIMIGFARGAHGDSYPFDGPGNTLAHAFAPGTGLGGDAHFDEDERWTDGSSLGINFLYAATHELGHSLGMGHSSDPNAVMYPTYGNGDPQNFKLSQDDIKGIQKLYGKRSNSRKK

[4] = biological target: Matrix metalloproteinase-9 (Homo sapiens, UniProt P14780); experiment: Inhibition of human recombinant MMP9 after 30 mins by fluorimetry
[5] = Lipophilicity, log P of the compound; type: physicochemical; details: octanol/water
[6] = Oral bioavailability in Sprague-Dawley rat at 10 mg/kg; type: ADME, organism-based; details: in vivo
Collagenase 3 [7] = biological target: T1, Collagenase 3
Description: Inhibition of human MMP13 expressed in Escherichia coli after 30 mins by fluorimetry

Rattus norvegicus [8] = experiment: AUC in Sprague-Dawley rat at 1 mg/kg, iv; type: ADME, organism-based, Plasma; design: dose 1 mg/kg, route intravenous; details: in vivo
Neutrophil collagenase = Neutrophil collagenase (Homo sapiens, UniProt P22894); experiment: Inhibition of human recombinant MMP8 after 30 mins by fluorimetry
Interstitial collagenase = biological target: T3, Interstitial collagenase (Homo sapiens, UniProt P03956); experiment: Inhibition of human recombinant MMP1 after 30 mins by fluorimetry
T3 sequence (P03956 whole entry): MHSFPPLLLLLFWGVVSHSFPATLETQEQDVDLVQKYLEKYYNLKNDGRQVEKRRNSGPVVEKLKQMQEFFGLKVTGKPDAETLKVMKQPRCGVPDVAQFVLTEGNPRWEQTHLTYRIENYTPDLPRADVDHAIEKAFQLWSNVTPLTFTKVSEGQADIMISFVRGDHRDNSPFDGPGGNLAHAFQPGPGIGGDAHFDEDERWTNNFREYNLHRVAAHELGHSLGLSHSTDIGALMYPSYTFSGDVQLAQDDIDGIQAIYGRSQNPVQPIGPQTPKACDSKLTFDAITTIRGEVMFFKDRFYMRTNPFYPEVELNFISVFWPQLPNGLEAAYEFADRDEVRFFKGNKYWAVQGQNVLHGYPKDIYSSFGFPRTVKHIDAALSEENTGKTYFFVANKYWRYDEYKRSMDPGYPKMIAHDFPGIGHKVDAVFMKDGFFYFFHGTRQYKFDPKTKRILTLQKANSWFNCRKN

Rattus norvegicus [9] = experiment: AUC in Sprague-Dawley rat at 10 mg/kg, po; type: ADME, organism-based, Plasma; design: dose 10 mg/kg, route oral; details: in vivo
Collagenase 3 [10] = biological target: T1, Collagenase 3; experiment: Inhibition of […]-activated MMP13-mediated degradation of FITC-labeled type2 collagen after 1.5 hrs by fluorimetry
Rattus norvegicus [11] = experiment: Volume of distribution at steady state in Sprague-Dawley rat at 1 mg/kg, iv and 10 mg/kg, po; type: ADME, organism-based; details: in vivo
Stromelysin-1 = Stromelysin-1 (Homo sapiens, UniProt P08254); experiment: Inhibition of human recombinant MMP3 after 30 mins by fluorimetry
[12] = biological target: Macrophage metalloelastase (Homo sapiens, UniProt P39900); experiment: Inhibition of human recombinant MMP12 after 30 mins by fluorimetry
[13] = Aqueous solubility of the compound at pH 7.4 by UV spectrophotometry; type: physicochemical; details: buffer
[14] = Cmax in Sprague-Dawley rat at 1 mg/kg, iv and 10 mg/kg, po; type: ADME, organism-based; details: in vivo
[15] = Half life in Sprague-Dawley rat at 1 mg/kg, iv and 10 mg/kg, po; type: ADME, organism-based; details: in vivo
[16] = biological target: Matrix metalloproteinase-14 (Homo sapiens, UniProt P50281); experiment: Inhibition of human recombinant MMP14 after 60 mins by fluorimetry
[17] = biological target: 72 kDa type IV collagenase (Homo sapiens, UniProt P08253); experiment: Inhibition of human recombinant MMP2 after 30 mins by fluorimetry
[18] = Metabolic stability in human liver microsomes after 5 mins relative to human hepatic blood flow; type: ADME, Microsome; details: read-out: Stability
Liver microsomes = experiment: Drug metabolism in Sprague-Dawley rat liver microsomes assessed as ester hydrolysis product formation; type: ADME, Microsome

Sequence of 72 kDa type IV collagenase (P08253 whole entry): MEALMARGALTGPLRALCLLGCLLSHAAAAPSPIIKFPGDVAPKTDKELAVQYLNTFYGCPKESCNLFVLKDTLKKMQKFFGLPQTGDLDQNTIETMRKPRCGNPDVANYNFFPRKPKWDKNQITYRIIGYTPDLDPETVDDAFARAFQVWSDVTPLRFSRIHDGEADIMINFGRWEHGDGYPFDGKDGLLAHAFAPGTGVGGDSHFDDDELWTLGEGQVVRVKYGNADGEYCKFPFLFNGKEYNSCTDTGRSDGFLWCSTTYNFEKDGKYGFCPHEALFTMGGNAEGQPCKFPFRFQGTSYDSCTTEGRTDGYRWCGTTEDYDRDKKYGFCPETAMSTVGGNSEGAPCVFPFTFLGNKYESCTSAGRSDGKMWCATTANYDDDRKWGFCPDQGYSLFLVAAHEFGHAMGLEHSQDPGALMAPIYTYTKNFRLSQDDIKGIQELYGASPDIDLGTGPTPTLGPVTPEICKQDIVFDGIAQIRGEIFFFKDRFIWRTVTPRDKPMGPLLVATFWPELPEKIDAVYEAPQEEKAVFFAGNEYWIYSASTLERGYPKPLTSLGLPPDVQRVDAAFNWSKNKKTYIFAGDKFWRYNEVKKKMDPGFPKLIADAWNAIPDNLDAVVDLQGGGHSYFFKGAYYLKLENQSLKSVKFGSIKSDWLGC
Sequence of Macrophage metalloelastase (P39900 whole entry): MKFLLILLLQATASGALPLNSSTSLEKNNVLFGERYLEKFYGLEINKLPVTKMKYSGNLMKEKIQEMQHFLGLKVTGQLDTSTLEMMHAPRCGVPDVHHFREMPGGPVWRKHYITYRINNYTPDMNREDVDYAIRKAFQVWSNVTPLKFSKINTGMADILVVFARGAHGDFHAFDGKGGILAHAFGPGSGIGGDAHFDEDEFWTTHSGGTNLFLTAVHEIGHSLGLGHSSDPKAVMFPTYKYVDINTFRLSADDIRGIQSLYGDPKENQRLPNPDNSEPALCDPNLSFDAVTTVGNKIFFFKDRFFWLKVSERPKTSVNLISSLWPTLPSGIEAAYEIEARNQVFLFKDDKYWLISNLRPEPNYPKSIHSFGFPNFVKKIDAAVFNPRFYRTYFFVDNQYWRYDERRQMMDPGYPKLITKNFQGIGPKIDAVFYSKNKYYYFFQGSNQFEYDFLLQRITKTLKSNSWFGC
Sequence of Matrix metalloproteinase-9 (P14780 whole entry): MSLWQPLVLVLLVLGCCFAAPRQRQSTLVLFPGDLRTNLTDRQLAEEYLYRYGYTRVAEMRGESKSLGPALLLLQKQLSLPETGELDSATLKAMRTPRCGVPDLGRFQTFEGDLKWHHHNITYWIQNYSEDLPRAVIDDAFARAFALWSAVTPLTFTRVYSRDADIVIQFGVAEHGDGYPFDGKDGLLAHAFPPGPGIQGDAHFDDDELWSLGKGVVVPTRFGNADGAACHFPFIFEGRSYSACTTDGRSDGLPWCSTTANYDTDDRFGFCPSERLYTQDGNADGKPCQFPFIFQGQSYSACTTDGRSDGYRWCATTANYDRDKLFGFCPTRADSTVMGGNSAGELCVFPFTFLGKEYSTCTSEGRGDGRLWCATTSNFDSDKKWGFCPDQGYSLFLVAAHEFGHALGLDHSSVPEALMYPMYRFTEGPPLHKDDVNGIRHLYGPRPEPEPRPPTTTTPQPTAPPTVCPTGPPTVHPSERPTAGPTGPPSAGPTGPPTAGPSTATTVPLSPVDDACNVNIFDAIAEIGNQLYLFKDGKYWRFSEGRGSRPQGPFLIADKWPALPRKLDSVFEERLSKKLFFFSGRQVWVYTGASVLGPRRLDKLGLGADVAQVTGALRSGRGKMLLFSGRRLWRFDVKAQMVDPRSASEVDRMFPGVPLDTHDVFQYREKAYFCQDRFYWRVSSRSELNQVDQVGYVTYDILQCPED
Sequence of Cytochrome P450 3A4 (P08684 whole entry): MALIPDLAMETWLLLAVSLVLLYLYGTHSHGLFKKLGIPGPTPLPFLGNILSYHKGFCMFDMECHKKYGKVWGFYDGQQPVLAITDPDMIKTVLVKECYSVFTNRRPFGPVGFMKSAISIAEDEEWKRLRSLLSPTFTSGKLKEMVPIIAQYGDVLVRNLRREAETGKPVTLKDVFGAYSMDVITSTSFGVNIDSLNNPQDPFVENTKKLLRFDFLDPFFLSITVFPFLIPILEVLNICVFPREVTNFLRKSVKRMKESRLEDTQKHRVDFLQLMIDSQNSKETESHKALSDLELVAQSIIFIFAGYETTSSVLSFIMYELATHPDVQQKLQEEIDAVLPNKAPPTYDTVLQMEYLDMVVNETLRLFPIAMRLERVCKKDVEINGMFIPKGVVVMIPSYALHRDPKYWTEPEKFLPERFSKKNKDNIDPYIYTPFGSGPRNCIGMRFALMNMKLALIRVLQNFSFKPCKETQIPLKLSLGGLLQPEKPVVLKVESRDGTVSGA
Sequence of Neutrophil collagenase (P22894 whole entry): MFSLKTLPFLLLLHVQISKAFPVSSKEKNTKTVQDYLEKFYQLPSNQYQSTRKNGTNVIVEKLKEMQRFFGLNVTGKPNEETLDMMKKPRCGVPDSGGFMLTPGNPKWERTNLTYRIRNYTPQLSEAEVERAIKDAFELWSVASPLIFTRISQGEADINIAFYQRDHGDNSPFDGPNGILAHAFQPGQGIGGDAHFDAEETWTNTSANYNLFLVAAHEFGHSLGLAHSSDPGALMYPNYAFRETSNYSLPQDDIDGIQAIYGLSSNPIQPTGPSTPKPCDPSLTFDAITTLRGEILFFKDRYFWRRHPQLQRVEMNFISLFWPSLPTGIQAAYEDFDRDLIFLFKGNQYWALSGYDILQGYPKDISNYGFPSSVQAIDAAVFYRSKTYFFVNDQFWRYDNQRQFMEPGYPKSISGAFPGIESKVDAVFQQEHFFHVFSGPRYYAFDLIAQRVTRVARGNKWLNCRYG
Sequence of Cytochrome P450 2C9 (P11712 whole entry): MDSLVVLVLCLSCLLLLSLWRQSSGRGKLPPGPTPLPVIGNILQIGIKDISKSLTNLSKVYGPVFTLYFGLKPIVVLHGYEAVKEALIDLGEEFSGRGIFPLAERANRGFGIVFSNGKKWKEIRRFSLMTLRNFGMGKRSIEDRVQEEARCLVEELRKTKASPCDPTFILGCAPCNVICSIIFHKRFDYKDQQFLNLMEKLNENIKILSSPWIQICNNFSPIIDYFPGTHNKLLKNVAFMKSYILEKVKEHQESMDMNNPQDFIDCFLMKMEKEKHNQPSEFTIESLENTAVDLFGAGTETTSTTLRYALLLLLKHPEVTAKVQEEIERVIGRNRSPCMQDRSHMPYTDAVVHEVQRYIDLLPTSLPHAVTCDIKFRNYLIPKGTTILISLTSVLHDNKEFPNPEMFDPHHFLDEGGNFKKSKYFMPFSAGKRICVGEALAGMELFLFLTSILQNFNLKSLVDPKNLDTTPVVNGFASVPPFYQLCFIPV
Sequence of Stromelysin-1 (P08254 whole entry): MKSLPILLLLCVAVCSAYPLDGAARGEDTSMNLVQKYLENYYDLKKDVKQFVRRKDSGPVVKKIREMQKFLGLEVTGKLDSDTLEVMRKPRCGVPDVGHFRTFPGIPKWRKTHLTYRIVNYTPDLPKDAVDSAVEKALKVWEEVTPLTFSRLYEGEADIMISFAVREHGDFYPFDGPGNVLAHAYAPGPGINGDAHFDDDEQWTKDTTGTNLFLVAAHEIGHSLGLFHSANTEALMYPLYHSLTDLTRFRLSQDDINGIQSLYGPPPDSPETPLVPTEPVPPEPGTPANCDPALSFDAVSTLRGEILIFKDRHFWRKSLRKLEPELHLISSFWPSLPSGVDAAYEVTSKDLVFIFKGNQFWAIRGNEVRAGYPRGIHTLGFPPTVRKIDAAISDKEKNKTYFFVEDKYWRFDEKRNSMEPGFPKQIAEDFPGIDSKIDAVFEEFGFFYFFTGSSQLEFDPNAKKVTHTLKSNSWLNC
Sequence of Stromelysin-2 (P09238 whole entry): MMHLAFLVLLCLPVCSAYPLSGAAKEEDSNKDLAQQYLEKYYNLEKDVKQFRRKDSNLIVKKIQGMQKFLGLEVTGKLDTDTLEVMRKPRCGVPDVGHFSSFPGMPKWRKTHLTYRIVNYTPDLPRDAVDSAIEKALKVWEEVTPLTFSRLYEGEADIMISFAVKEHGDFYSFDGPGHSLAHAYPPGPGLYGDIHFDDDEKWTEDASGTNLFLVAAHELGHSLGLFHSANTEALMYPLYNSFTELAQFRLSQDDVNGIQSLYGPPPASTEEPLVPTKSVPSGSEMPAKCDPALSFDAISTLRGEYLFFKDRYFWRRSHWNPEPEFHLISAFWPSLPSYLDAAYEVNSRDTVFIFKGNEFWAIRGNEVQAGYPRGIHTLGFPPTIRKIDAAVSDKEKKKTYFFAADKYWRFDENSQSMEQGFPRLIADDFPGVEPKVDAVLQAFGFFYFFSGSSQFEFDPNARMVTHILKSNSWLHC

SMILES	pIC50 (Collagenase 3 [1])	pIC50 (Collagenase 3 [7])	pIC50 [16]	pIC50 [17]	also measured
CC(=O)Nc1ccc2[nH]c(C3=NCCO3)cc2c1	–	3.66	< 3.30	< 3.30	–
CCOC(=O)c1cc2cc(NS(C)(=O)=O)ccc2[nH]1	–	4.01	< 3.30	3.68	–
CCNC(=O)c1cc2cc(C(N)=O)ccc2[nH]1	–	< 3.30	< 3.30	< 3.30	–
Cn1nc(C(=O)NCc2ccc(C(=O)O)cc2)cc1-c1ccc2[nH]ccc2c1 [BI 4395]	–	< 4.59	–	–	hepatic extraction ratio at 5 min [18]: 0.25
CCOC(=O)c1cc2cc(-c3ccccc3)ccc2[nH]1	–	< 3.30	< 3.30	< 3.30	–
CCOC(=O)c1cc2cc(-c3cc(C(=O)NCc4ccc(CC(=O)O)cc4)nn3C)ccc2[nH]1	7.85	–	< 4.66	< 4.66	–
CCOC(=O)c1cc2cc(-c3ccccn3)ccc2[nH]1	–	< 3.30	< 3.30	< 3.30	–
CCCC(=O)c1cc2cc(C(N)=O)ccc2[nH]1	–	< 3.30	< 3.30	< 3.30	–
CCOC(=O)c1cc2cc(C(N)=O)ccc2[nH]1	–	–	< 3.30	4.22	–

Further compounds by rising pIC50 (Collagenase 3 [7]), results first:

pIC50 (Collagenase 3 [1])	pIC50 (Collagenase 3 [7])	pIC50 [16]	pIC50 [17]	SMILES	also measured
–	4.09	3.65	3.51	CCOC(=O)c1cc2cc(-c3ccncc3)ccc2[nH]1	–
–	4.51	< 3.30	< 3.30	CCOC(=O)c1cc2cc(NC(C)=O)ccc2[nH]1	–
4.25	4.60	–	–	Cn1nc(C(=O)NCc2ccc(C(=O)O)cc2)cc1-c1ccc2[nH]c(C(=O)O)cc2c1	Drug metabolism (Liver microsomes): Active
–	4.82	4.29	4.52	CCOC(=O)c1cc2cc(-c3cccnc3)ccc2[nH]1	–
–	5.02	< 3.30	< 3.30	CCOC(=O)c1cc2cc(-c3ccncc3C)ccc2[nH]1	–
–	5.60	4.82	4.62	CCOC(=O)c1cc2cc(-c3cncn3C)ccc2[nH]1	–
–	5.62	4.39	4.08	CCOC(=O)c1cc2cc(-c3cc(C(=O)OC)nn3C)ccc2[nH]1	–
5.72	6.60	–	–	CCOCc1cc2cc(-c3cc(C(=O)NCc4ccc(C(=O)O)cc4)nn3C)ccc2[nH]1	hepatic extraction ratio at 5 min [18]: 0.78
6.19	6.82	< 4.66	< 4.70	CCOC(=O)c1cc2cc(-c3cc(C(=O)NCc4ccncc4)ncc3C)ccc2[nH]1	–
6.55	6.92	4.96	< 4.62	CCOC(=O)c1cc2cc(-c3cc(C(=O)NCc4ccc(=O)[nH]c4)nn3C)ccc2[nH]1	–
6.44	7.05	< 3.30	< 3.30	CCOC(=O)c1cc2cc(-c3cc(C(=O)NCc4ccncc4)nn3C)ccc2[nH]1	–
8.40	9.00	–	–	CCOC(=O)c1cc2cc(-c3cc(C(=O)NCc4ccc(C(=O)O)cc4)nn3C)ccc2[nH]1 [BI 4394]	pIC50 (Stromelysin-2): 4.80; pIC50 (Cytochrome P450 2C9): < 4.52; pIC50 (Collagenase 3 [2]): 7.51; pIC50 (Cytochrome P450 3A4): < 4.52; clearance [3]: 34 mL/min/kg; pIC50 (Matrilysin): < 4.66; pIC50 [4]: 5.05; logP [5]: 1.9; bioavailability [6]: 39%; AUC (Rattus norvegicus [8]): 1109 nM.hr/ml; pIC50 (Neutrophil collagenase): < 4.66; pIC50 (Interstitial collagenase): < 4.66; AUC (Rattus norvegicus [9]): 4328 nM.hr/ml; pIC50 (Collagenase 3 [10]): 7.96; Vdss (Rattus norvegicus [11]): 0.26 L/kg; pIC50 (Stromelysin-1): < 4.66; pIC50 [12]: < 4.66; solubility [13]: 60 µg/mL (≈ 134 µM); Cmax [14]: 1660 nM; half-life [15]: 28.2 min
